Our source for the CB2 binding, CB1 binding and EC50 values is US20070117857A1, “Substituted 3-amido-tetrahydro-indazolyl cannabinoid modulators” (priority 2005, published 2007).

One test addresses T1, human CB2 receptor (Homo sapiens, UniProt P34972).
T1 construct: expressed in transfected cells; host or cells: SK-N-MC cells (semi-purified membrane pellet)
The experiment in a line: Binding assay for CB2 agonists or inverse agonists ([3H]-CP-55,940 displacement). Particulars: test concentration of 0.2 μM; membranes of SK-N-MC cells expressing human CB2. The protocol:
(§1) The human CB1 and CB2 receptors were stably expressed in SK-N-MC cells transfected with pcDNA3 CB1 (human) or pcDNA3 CB-2 (human). The cells were grown in T-180 cell culture flasks under standard cell culture conditions at 37° C. in a 5% CO2 atmosphere. The cells were harvested by trysinization and homogenized in a homogenization buffer (10 mM Tris, 0.2 mM MgCl2, 5 mM KCl, with protease inhibitors aprotinin, leupeptin, pepstatin A and bacitracin) and centrifuged (2000 g). The supernatant was then centrifuged in 2M sucrose (31,300 g) to produce a semi-purified membrane pellet. The pellet was resuspended in homogenization and stored at −80° C.
(§2) On the day of the assay, the pellet was thawed on ice and diluted in assay buffer (50 mM Tris-HCl, 5 mM MgCl2, 2.5 mM EDTA, 0.5 mg/mL fatty acid free bovine serum albumin, pH 7.5). […] Non-specific binding was measured in wells containing WIN 55,212 (10 uM). […] The Unifilter plate was dried, a scintillation cocktail was added to each well and the counts representing binding were quantitated in a TopCount scintillation counter.
(§3) For compounds tested, an IC50 binding value was obtained from percent inhibition studies in which various test concentrations were used. The binding value was calculated by linear regression. […]

The target in test [1] is T2, human CB1 receptor (Homo sapiens, UniProt P21554). The experiment in a line: Binding assay for CB1 agonists or inverse agonists ([3H]-CP-55,940 displacement). Conditions: test concentration of 0.2 μM; membranes of SK-N-MC cells expressing human CB1. Also noted: expressed in transfected cells; host or cells: SK-N-MC cells (semi-purified membrane pellet). As for the experimental part:
as §1, §2, §3

For test [2], the target named is T2, human CB1 receptor. The experiment in a line: Functional cell-based assay, CB1 receptor mediated change in CRE β-gal expression. Conditions: SK-N-MC cells with CRE β-gal and human CB1; forskolin treated; β-galactosidase activity; read-out: EC50 value for functional activity as a CB1 receptor functional inverse agonist. Also noted: expressed in transfected cells; host or cells: SK-N-MC cells. From the text:
The CB1 and CB2.receptors are G-protein coupled receptors (GPCR) that influence cell function via the Gi-protein. These receptors modulate the activity of intracellular adenylate cyclase, which in turn produces the intracellular signal messenger cyclic-AMP (cAMP).
At baseline, or during non-ligand bound conditions, these receptors are constitutively active and tonically suppress adenylate cyclase activity. The binding of an agonist causes further receptor activation and produces additional suppression of adenylate cyclase activity. The binding of an inverse agonist inhibits the constitutive activity of the receptors and results in an increase in adenylate cyclase activity.
Test compounds were evaluated in SK-N-MC cells which, using standard transfection procedures, were stably transfected with human cDNA for pcDNA3-CRE β-gal and pcDNA3 CB1 receptor (human) or pcDNA3 CB2 receptor (human). By expressing CRE β-gal, the cells produced β-galactosidase in response to CRE promoter activation by cAMP. Cells expressing CRE β-gal and either the human CB1 or CB2 receptor will produce less β-galactosidase when treated with a CB1/CB2 agonist and will produce more β-galactosidase when treated with a CB1/CB2 inverse agonist.
The cells were grown in 96-well plates under standard cell culture conditions at 37° C. in a 5% CO2 atmosphere. After 3 days, the media was removed and a test compound in media (wherein the media was supplemented with 2 mM L-glutamine, […] sodium pyruvate, 0.1% low fatty acid FBS (fetal bovine serum) and antibiotics) was added to the cell. The plates were incubated for 30 minutes at 37° C. and the plate cells were then treated with forskolin over a 4-6 hour period, then washed and lysed. The β-galactosidase activity was quantitated using commercially available kit reagents (Promega Corp. Madison, Wis.) and a Vmax Plate Reader (Molecular Devices, Inc).
For cells expressing CRE β-gal and the CB1 receptor, CB1 agonists reduced β-galactosidase activity in a dose-dependent manner and CB1 inverse agonists increased β-galactosidase activity in a dose-dependent manner.
The change in β-galactosidase activity was determined by setting a vehicle treated cell's activity value at 100% and expressing the β-galactosidase activity measured in a corresponding compound treated cell as a percent of the vehicle treated cell activity.
The EC50 value for functional activity for compounds tested was calculated by linear regression and was obtained from studies in which varying compound concentrations were used.

T2 sequence (P21554 whole entry): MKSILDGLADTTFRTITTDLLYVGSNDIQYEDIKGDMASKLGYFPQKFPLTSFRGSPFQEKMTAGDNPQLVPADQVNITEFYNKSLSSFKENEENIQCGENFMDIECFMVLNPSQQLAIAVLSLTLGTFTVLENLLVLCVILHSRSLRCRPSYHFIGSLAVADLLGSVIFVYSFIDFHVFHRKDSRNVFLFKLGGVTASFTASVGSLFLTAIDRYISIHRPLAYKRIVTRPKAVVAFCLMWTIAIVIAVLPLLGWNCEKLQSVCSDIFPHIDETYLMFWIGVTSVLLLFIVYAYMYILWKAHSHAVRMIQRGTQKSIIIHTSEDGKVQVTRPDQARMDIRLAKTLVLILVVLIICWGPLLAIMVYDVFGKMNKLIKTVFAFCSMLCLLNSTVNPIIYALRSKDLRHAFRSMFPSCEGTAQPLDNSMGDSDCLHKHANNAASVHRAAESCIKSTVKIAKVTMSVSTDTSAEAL
T1 sequence (P34972 whole entry): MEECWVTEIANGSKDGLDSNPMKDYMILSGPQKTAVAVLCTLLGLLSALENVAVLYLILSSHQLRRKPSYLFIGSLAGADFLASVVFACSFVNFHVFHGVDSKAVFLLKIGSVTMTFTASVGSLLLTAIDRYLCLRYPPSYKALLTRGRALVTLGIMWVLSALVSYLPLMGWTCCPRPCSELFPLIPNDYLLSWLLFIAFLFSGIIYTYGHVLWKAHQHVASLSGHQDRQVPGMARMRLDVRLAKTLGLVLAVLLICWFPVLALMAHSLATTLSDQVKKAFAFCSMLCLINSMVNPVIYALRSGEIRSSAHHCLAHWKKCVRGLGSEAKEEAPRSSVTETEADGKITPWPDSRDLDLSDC

`O=C(NN1CCCCC1=O)c1nn(-c2ccc(Cl)cc2Cl)c2c1CCC/C2=C\c1ccc(F)cc1` [Compound 3, (7E)-1-(2,4-dichloro-phenyl)-7-(4-fluoro-benzylidene)-4,5,6,7-tetrahydro-1H-indazole-3-carboxylic acid(2-oxo-piperidin-1-yl)-amide] had a CB2 binding on human CB2 receptor of 28%. For the same molecule, on human CB1 receptor [1], the CB1 binding is reported as 19%.

For `COC1CCN(NC(=O)c2nn(-c3ccc(Cl)cc3Cl)c3c2CCC/C3=C\c2ccc(F)cc2)CC1` [Compound 2, (7E)-1-(2,4-dichloro-phenyl)-7-(4-fluoro-benzylidene)-4,5,6,7-tetrahydro-1H-indazole-3-carboxylic acid(4-methoxy-piperidin-1-yl)-amide], the EC50 (in general, the concentration at which the effect is half-maximal) on human CB1 receptor [2] worked out at 4 nM.

On to `O=C(NN1C=CCCC1)c1nn(-c2ccc(Cl)cc2Cl)c2c1CCC/C2=C\c1ccc(F)cc1` [Compound 5, (7E)-1-(2,4-dichloro-phenyl)-7-(4-fluoro-benzylidene)-4,5,6,7-tetrahydro-1H-indazole-3-carboxylic acid(3,4-dihydro-2H-pyridin-1-yl)-amide], for which, on human CB1 receptor [2], the EC50 came out at 1.4 nM.

As for `O=C(NN1CCC(O)CC1)c1nn(-c2ccc(Cl)cc2Cl)c2c1CCC/C2=C\c1ccc(F)cc1` [Compound 1, (6E)-1-(2,4-dichloro-phenyl)-7-(4-fluoro-benzylidene)-4,5,6,7-tetrahydro-1H-indazole-3-carboxylic acid (4-hydroxy-piperidin-1-yl)-amide], the EC50 on human CB1 receptor [2] was found to be 40 nM.

`C[N+]1(NC(=O)c2nn(-c3ccc(Cl)cc3Cl)c3c2CCC/C3=C\c2ccc(F)cc2)CCCCC1` [Compound 4, (7E)-1-{[1-(2,4-dichloro-phenyl)-7-(4-fluoro-benzylidene)-4,5,6,7-tetrahydro-1H-indazole-3-carbonyl]-amino}-1-methyl-piperidinium]: on human CB1 receptor [2], the EC50 amounted to 7.2 nM.
